# Measurements reported in US7625926B2, “P-glycoprotein inhibitor, method for preparing the same and pharmaceutical composition comprising the same” (Hanmi Pharm. Co., Ltd, priority 2003, dated 2009).
# Experiments:
# [1] = In vivo absorption of orally administered paclitaxel; settings: rats, oral 20 mg/kg paclitaxel with the compound (Control: with vehicle)
# Experimental: In order to investigate the activity of the inventive compounds prepared in Examples, in vivo absorption tests were carried out as follows.
# Blood samples were taken directly from the heart of each rat before and 1, 2, 4, 6, 8 and 24 hours after the administration.
# Each of blood samples was centrifuged at 12,000 rpm to obtain a serum sample, 200 μl of which was mixed with 400 μl of acetonitrile (an internal standard) and the mixture was shaken to obtain an extract. The extract was centrifuged at 12,000 rpm, 4° C. for 5 min to obtain a supernatant.
# [2] = test system: MCF-7/Dox cell, which is MCF-7 expressing p-glycoprotein; settings: enhancement of anticancer activity of paclitaxel against MCF7/Dox; ED50 of paclitaxel alone / ED50 with 50 nM test compound
# Experimental: The cells were subcultured in 5% FBS (fetal bovine serum)/RPMI1640 medium supplemented with glutamine 2 mmol, sodium bicarbonate 3.7 g/L and gentamicin 10 mg/L at 37° C. in 5% CO2 incubator under 100% humidity, and collected using a 0.25% trypsin solution containing 3 mM 1,2-cyclohenxandiamine tetraacetic acid.
# The collected cells were plated on a 96 well flat-bottomed plate at a density of 2×10^3 cells/well, and incubated in the same medium for 24 hours. Paclitaxel, an anticancer agent, was diluted with the same medium to obtain 10^−11˜10^−6 M test solutions. […] After incubating for 72 hours, the culture medium was removed, each well was treated with 10% trichloroacetic acid for 1 hour to fix the cells, washed with water, and dried at room temperature. After adding a dyeing solution containing 1% acetic acid with 0.4% SRB (sulforhodamine B) thereto, the wells were kept at room temperature for 30 min, and washed with 1% acetic acid to remove remaining SRB. […] Also, the enhancement of the anticancer activity of paclitaxel against MCF7/Dox (resistant cancer cells) was measured by determining ED^PAC50/ED50, wherein ED^PAC50 is the value determined for the case of paclitaxel alone.
SMILES,"AUC (ng · hr/ml), area under the curve of blood concentration till 24 hours [1]","Cmax (ng/ml), maximum blood concentration [1]","Tmax (hr), time at the maximum blood concentration [1]",ED50^PAC/ED50 [2]
"COc1cc2c(cc1OC)CN(CCc1ccc(-n3nnc(-c4cc(OC)c(OC)cc4NC(=O)c4cnc5ccccc5c4)n3)cc1)CC2 [Example 1, quinoline-3-carboxylic acid [2-(2-4-[2-(6,7-dimethoxy-3,4-dihydro-1H-isoquinolin-2-yl)-ethyl]-phenyl-2H-tetrazol-5-yl)-4,5-dimethoxy-phenyl]-amide]","3,032 ± 1,108 ng · hr/ml","1,172 ± 433 ng/ml",1.0 h,20.3
"COc1cc2c(cc1OC)CN(CCc1ccc(-n3nnc(-c4cc(F)c(F)cc4NC(=O)c4cnc5ccccc5c4)n3)cc1)CC2 [Example 28, quinoline-3-carboxylic acid [2-(2-{4-[2-(6,7-dimethoxy-3,4-dihydro-1H-isoquinolin-2-yl)-ethyl]-phenyl}-2H-tetrazol-5-yl)-4,5-difluoro-phenyl]-amide]",–,–,–,19.9
"COc1cc2c(cc1OC)CN(CCSc1ccc(-n3nnc(-c4cc(OC)c(OC)cc4NC(=O)c4cnc5ccccc5c4)n3)cc1)CC2 [Example 29, quinoline-3-carboxylic acid [2-(2-{4-[2-(6,7-dimethoxy-3,4-dihydro-1H-isoquinolin-2-yl)-ethylsulfanyl]-phenyl}-2H-tetrazol-5-yl)-4,5-dimethoxy-phenyl]-amide]",–,–,–,21.3
COc1cc2c(cc1OC)CN(CCc1ccc(-n3nnc(-c4cc(OC)c(OC)cc4NC(=O)c4cnc5ccccc5c4)n3)cc1)CC2 [Example 30],–,–,–,2.6
"COc1cc2c(cc1OC)CN(CCc1ccc(-n3nnc(-c4cc(OC)c(OC)cc4NC(=O)C=Cc4ccccc4)n3)cc1)CC2 [Example 31, N-[2-(2-{4-[2-(6,7-dimethoxy-3,4-dihydro-1H-isoquinolin-2-yl)-ethyl]-phenyl}-2H-tetrazol-5-yl)-4,5-dimethoxy-phenyl]-3-phenyl-acrylamide]",–,–,–,2.7
"COc1cc2c(cc1OC)CN(CCc1ccc(-n3nnc(-c4cc(OC)c(OC)cc4NC(=O)C=Cc4cnc5ccccc5c4)n3)cc1)CC2 [Example 32, N-[2-(2-{4-[2-(6,7-dimethoxy-3,4-dihydro-1H-isoquinolin-2-yl)-ethyl]-phenyl}-2H-tetrazol-5-yl)-4,5-dimethoxy-phenyl]-3-quinolin-3-yl-acrylamide]",–,–,–,19.2
"COc1ccc(CCN(C)CCc2ccc(-n3nnc(-c4cc(OC)c(OC)cc4NC(=O)c4cc(=O)c5ccccc5o4)n3)cc2)cc1OC [Example 33, 4-oxo-4H-chromene-2-carboxylic acid (2-{2-[4-(2-{[2-(3,4-dimethoxy-phenyl)-ethyl]-methyl-amino}-ethyl)-phenyl]-2H-tetrazol-5-yl}-4,5-dimethoxy-phenyl)-amide]",–,–,–,23.0
